Reference: PubChem BioAssay AID1259407 (Chemical Carcinogenesis Research Information System (CCRIS), 2018)
Active and inactive are the calls of the source. How the calls were made is not given here.

Tested on: CCRIS mutagenicity, Ames/micronucleus/aberration tests
Test: CCRIS mutagenicity studies

Question: What does the source list for Nc1c2ccccc2nc2ccccc12?
Answer: mutagenic call (Test System: AMES SALMONELLA TYPHIMURIUM, Strain/Indicator: TA97A, Metabolic Activation: NONE, Method: STANDARD PLATE): active; positive; mutagenic call (Test System: AMES SALMONELLA TYPHIMURIUM, Strain/Indicator: TA98, Metabolic Activation: HAMSTER, LIVER, S-9, AROCLOR 1254 (10%), Method: PREINCUBATION): inactive; negative; mutagenic call (Test System: AMES SALMONELLA TYPHIMURIUM, Strain/Indicator: TA98, Metabolic Activation: NONE, Method: FLUCTUATION (MICROTITER)): inactive; negative; mutagenic call (Test System: AMES SALMONELLA TYPHIMURIUM, Strain/Indicator: TA98, Metabolic Activation: NONE, Method: PREINCUBATION): inactive; negative; mutagenic call (Test System: AMES SALMONELLA TYPHIMURIUM, Strain/Indicator: TA98, Metabolic Activation: NONE, Method: SPIRAL ASSAY): inactive; negative; mutagenic call (Test System: AMES SALMONELLA TYPHIMURIUM, Strain/Indicator: TA98, Metabolic Activation: NONE, Method: STANDARD PLATE): inactive; negative; mutagenic call (Test System: AMES SALMONELLA TYPHIMURIUM, Strain/Indicator: TA98, Metabolic Activation: RAT, LIVER, S-9, AROCLOR 1254 (10%), Method: PREINCUBATION): inactive; negative; mutagenic call (Test System: AMES SALMONELLA TYPHIMURIUM, Strain/Indicator: TA98, Metabolic Activation: RAT, LIVER, S-9, AROCLOR 1254, Method: SPIRAL ASSAY): inactive; negative; mutagenic call (Test System: AMES SALMONELLA TYPHIMURIUM, Strain/Indicator: TA98, Metabolic Activation: RAT, LIVER, S-9, AROCLOR 1254, Method: STANDARD PLATE): inactive; negative; mutagenic call (Test System: AMES SALMONELLA TYPHIMURIUM, Strain/Indicator: TA100, Metabolic Activation: HAMSTER, LIVER, S-9, AROCLOR 1254 (10%), Method: PREINCUBATION): inactive; negative; mutagenic call (Test System: AMES SALMONELLA TYPHIMURIUM, Strain/Indicator: TA100, Metabolic Activation: NONE, Method: PREINCUBATION): inactive; negative; mutagenic call (Test System: AMES SALMONELLA TYPHIMURIUM, Strain/Indicator: TA100, Metabolic Activation: NONE, Method: SPIRAL ASSAY): inactive; negative; mutagenic call (Test System: AMES SALMONELLA TYPHIMURIUM, Strain/Indicator: TA100, Metabolic Activation: NONE, Method: STANDARD PLATE): inactive; negative; mutagenic call (Test System: AMES SALMONELLA TYPHIMURIUM, Strain/Indicator: TA100, Metabolic Activation: RAT, LIVER, S-9, AROCLOR 1254 (10%), Method: PREINCUBATION): inactive; negative; mutagenic call (Test System: AMES SALMONELLA TYPHIMURIUM, Strain/Indicator: TA100, Metabolic Activation: RAT, LIVER, S-9, AROCLOR 1254, Method: SPIRAL ASSAY): inactive; negative; mutagenic call (Test System: AMES SALMONELLA TYPHIMURIUM, Strain/Indicator: TA100, Metabolic Activation: RAT, LIVER, S-9, AROCLOR 1254, Method: STANDARD PLATE): inactive; negative; mutagenic call (Test System: AMES SALMONELLA TYPHIMURIUM, Strain/Indicator: TA1535, Metabolic Activation: HAMSTER, LIVER, S-9, AROCLOR 1254 (10%), Method: PREINCUBATION): inactive; negative; mutagenic call (Test System: AMES SALMONELLA TYPHIMURIUM, Strain/Indicator: TA1535, Metabolic Activation: NONE, Method: PREINCUBATION): inactive; negative; mutagenic call (Test System: AMES SALMONELLA TYPHIMURIUM, Strain/Indicator: TA1535, Metabolic Activation: NONE, Method: SPIRAL ASSAY): inactive; negative; mutagenic call (Test System: AMES SALMONELLA TYPHIMURIUM, Strain/Indicator: TA1535, Metabolic Activation: NONE, Method: STANDARD PLATE): inactive; negative; mutagenic call (Test System: AMES SALMONELLA TYPHIMURIUM, Strain/Indicator: TA1535, Metabolic Activation: RAT, LIVER, S-9, AROCLOR 1254 (10%), Method: PREINCUBATION): inactive; negative; mutagenic call (Test System: AMES SALMONELLA TYPHIMURIUM, Strain/Indicator: TA1535, Metabolic Activation: RAT, LIVER, S-9, AROCLOR 1254, Method: SPIRAL ASSAY): inactive; negative; mutagenic call (Test System: AMES SALMONELLA TYPHIMURIUM, Strain/Indicator: TA1535, Metabolic Activation: RAT, LIVER, S-9, AROCLOR 1254, Method: STANDARD PLATE): inactive; negative; mutagenic call (Test System: AMES SALMONELLA TYPHIMURIUM, Strain/Indicator: TA1535, Metabolic Activation: RAT, LIVER, S-9, TETRACHLOROBIPHENYL, Method: PREINCUBATION): inactive; negative; mutagenic call (Test System: AMES SALMONELLA TYPHIMURIUM, Strain/Indicator: TA1537, Metabolic Activation: HAMSTER, LIVER, S-9, AROCLOR 1254 (10%), Method: PREINCUBATION): active; positive; mutagenic call (Test System: AMES SALMONELLA TYPHIMURIUM, Strain/Indicator: TA1537, Metabolic Activation: NONE): active; positive; mutagenic call (Test System: AMES SALMONELLA TYPHIMURIUM, Strain/Indicator: TA1537, Metabolic Activation: NONE, Method: PREINCUBATION): active; positive; mutagenic call (Test System: AMES SALMONELLA TYPHIMURIUM, Strain/Indicator: TA1537, Metabolic Activation: NONE, Method: SPIRAL ASSAY): active; positive; mutagenic call (Test System: AMES SALMONELLA TYPHIMURIUM, Strain/Indicator: TA1537, Metabolic Activation: NONE, Method: STANDARD PLATE): active; positive; mutagenic call (Test System: AMES SALMONELLA TYPHIMURIUM, Strain/Indicator: TA1537, Metabolic Activation: RAT LIVER S-9, AROCLOR 1254, Method: FLUCTUATION (MICROTITER)): active; positive; mutagenic call (Test System: AMES SALMONELLA TYPHIMURIUM, Strain/Indicator: TA1537, Metabolic Activation: RAT, LIVER, S-9, AROCLOR 1254 (10%), Method: PREINCUBATION): active; positive; mutagenic call (Test System: AMES SALMONELLA TYPHIMURIUM, Strain/Indicator: TA1537, Metabolic Activation: RAT, LIVER, S-9, AROCLOR 1254, Method: SPIRAL ASSAY): active; positive; mutagenic call (Test System: AMES SALMONELLA TYPHIMURIUM, Strain/Indicator: TA1537, Metabolic Activation: RAT, LIVER, S-9, AROCLOR 1254, Method: STANDARD PLATE): active; positive; mutagenic call (Test System: AMES SALMONELLA TYPHIMURIUM, Strain/Indicator: TA1537, Metabolic Activation: RAT, LIVER, S-9, TETRACHLOROBIPHENYL, Method: PREINCUBATION): active; positive; mutagenic call (Test System: AMES SALMONELLA TYPHIMURIUM, Strain/Indicator: TA1538, Metabolic Activation: NONE, Method: PREINCUBATION): inactive; negative; mutagenic call (Test System: AMES SALMONELLA TYPHIMURIUM, Strain/Indicator: TA1538, Metabolic Activation: RAT, LIVER, S-9, TETRACHLOROBIPHENYL, Method: PREINCUBATION): inactive; negative; mutagenic call (Test System: AMES SALMONELLA TYPHIMURIUM, Strain/Indicator: TA1977, Metabolic Activation: NONE, Method: PREINCUBATION): active; positive; mutagenic call (Test System: AMES SALMONELLA TYPHIMURIUM, Strain/Indicator: TA1977, Metabolic Activation: RAT, LIVER, S-9, TETRACHLOROBIPHENYL, Method: PREINCUBATION): active; positive; mutagenic call (Test System: AMES SALMONELLA TYPHIMURIUM, Strain/Indicator: TA7001, Metabolic Activation: NONE, Method: FLUCTUATION (MICROTITER)): inactive; negative; mutagenic call (Test System: AMES SALMONELLA TYPHIMURIUM, Strain/Indicator: TA7002, Metabolic Activation: NONE, Method: FLUCTUATION (MICROTITER)): inactive; negative; mutagenic call (Test System: AMES SALMONELLA TYPHIMURIUM, Strain/Indicator: TA7003, Metabolic Activation: NONE, Method: FLUCTUATION (MICROTITER)): inactive; negative; mutagenic call (Test System: AMES SALMONELLA TYPHIMURIUM, Strain/Indicator: TA7004, Metabolic Activation: NONE, Method: FLUCTUATION (MICROTITER)): inactive; negative; mutagenic call (Test System: AMES SALMONELLA TYPHIMURIUM, Strain/Indicator: TA7005, Metabolic Activation: NONE, Method: FLUCTUATION (MICROTITER)): inactive; negative; mutagenic call (Test System: AMES SALMONELLA TYPHIMURIUM, Strain/Indicator: TA7006, Metabolic Activation: NONE, Method: FLUCTUATION (MICROTITER)): inactive; negative; mutagenic call (Test System: CHINESE HAMSTER OVARY, Strain/Indicator: CHO-K1-BH4 (HGPRT), Metabolic Activation: NONE, Method: SUSPENSION/PLATE): inactive; negative; mutagenic call (Test System: CHINESE HAMSTER OVARY, Strain/Indicator: CHO-K1-BH4 (HGPRT), Metabolic Activation: RAT, LIVER, S-9, AROCLOR, Method: SUSPENSION/PLATE): inactive; negative; mutagenic call (Test System: CHINESE HAMSTER V-79, Strain/Indicator: V-79/6-THIOGUANINE, Metabolic Activation: NONE, Method: FLASK ASSAY): inactive; negative; mutagenic call (Test System: E. COLI, Strain/Indicator: WP2 UVRA, Metabolic Activation: HAMSTER, LIVER, S-9, AROCLOR 1254, Method: STANDARD PLATE): inactive; negative; mutagenic call (Test System: E. COLI, Strain/Indicator: WP2 UVRA, Metabolic Activation: HAMSTER, LIVER, S-9, Method: STANDARD PLATE): inactive; negative; mutagenic call (Test System: E. COLI, Strain/Indicator: WP2 UVRA, Metabolic Activation: MOUSE, LIVER, S-9, AROCLOR 1254, Method: STANDARD PLATE): inactive; negative; mutagenic call (Test System: E. COLI, Strain/Indicator: WP2 UVRA, Metabolic Activation: MOUSE, LIVER, S-9, Method: STANDARD PLATE): inactive; negative; mutagenic call (Test System: E. COLI, Strain/Indicator: WP2 UVRA, Metabolic Activation: NONE, Method: STANDARD PLATE): inactive; negative; mutagenic call (Test System: E. COLI, Strain/Indicator: WP2 UVRA, Metabolic Activation: RAT, LIVER, S-9, AROCLOR 1254, Method: STANDARD PLATE): inactive; negative; mutagenic call (Test System: E. COLI, Strain/Indicator: WP2 UVRA, Metabolic Activation: RAT, LIVER, S-9, Method: STANDARD PLATE): inactive; negative; mutagenic call (Test System: E. coli, Strain/Indicator: KKi (wild-type), KK5 (recA56) and KK6 (uvrA6), Metabolic Activation: None, Method: Viable cells scored on LB-plates after 18 hr incubation): active; positive in all 3 strains (most common mutations minus frameshifts in repetitive; mutagenic call (Test System: UDS RAT HEPATOCYTES, Strain/Indicator: THY INCORP, Metabolic Activation: NONE, Method: AUTORADIOGRAPHY (SERUM-FREE MEDIA)): inactive; negative
